Test results: PubChem BioAssay AID248 (DTP/NCI, 2004)
Several values for one entry are separate records, joined by “and”; a condition that tells them apart may be missing. Equal entries are not always repeated. Inconclusive results and toxic doses are left out.

System: L1210 leukemia ip in BDF1 mice, survival T/C
Test: NCI In Vivo Anticancer Drug Screen. Data for tumor model L1210 Leukemia (intraperitoneal) in B6D2F1 (BDF1) mice
Settings: endpoint: mean survival time, higher = longer survival
How it was run: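 Survival endpoint. Drug-treated group vs vehicle group, expressed as T divided by C. Tumor passaged by transplantation.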

[1] = dose: 50.0 mg/kg/injection, schedule: Q01DX009 (ip), vehicle: saline with Tween-80
[2] = dose: 100.0 mg/kg/injection, schedule: Q04DX003 (ip), vehicle: saline with Tween-80
[3] = dose: 200.0 mg/kg/injection, schedule: Q04DX003 (ip), vehicle: saline with Tween-80
[4] = dose: 400.0 mg/kg/injection, schedule: Q04DX003 (ip), vehicle: saline with Tween-80

C[N+](C)(C)c1ncnc2nc[nH]c12
T/C (dose: 22.5 mg/kg/injection, schedule: Q01DX Z (ip), vehicle: saline): 112 % of control | T/C (dose: 31.0 mg/kg/injection, schedule: Q01DX005 (ip), vehicle: saline): 112 % of control | T/C (dose: 31.0 mg/kg/injection, schedule: Q01DX009 (ip), vehicle: saline): 120 % of control | T/C (dose: 45.0 mg/kg/injection, schedule: Q01DX Z (ip), vehicle: saline): 110 % of control | T/C (dose: 53.0 mg/kg/injection, schedule: Q01DX Z (ip), vehicle: carboxymethylcellulose (CMC)): 110 % of control | T/C (dose: 62.0 mg/kg/injection, schedule: Q01DX005 (ip), vehicle: saline): 110 % of control | T/C (dose: 62.0 mg/kg/injection, schedule: Q01DX009 (oral), vehicle: saline): 109 % of control | T/C (dose: 62.0 mg/kg/injection, schedule: Q01DX009 (sc), vehicle: saline): 109 % of control | T/C (dose: 80.0 mg/kg/injection, schedule: Q01DX Z (ip), vehicle: carboxymethylcellulose (CMC)): 118 % of control | T/C (dose: 100.0 mg/kg/injection, schedule: Q## X008 (ip), vehicle: saline): 110 % of control | T/C (dose: 100.0 mg/kg/injection, schedule: Q## X024 (ip), vehicle: saline): 115 % of control | T/C (dose: 120.0 mg/kg/injection, schedule: Q01DX Z (ip), vehicle: carboxymethylcellulose (CMC)): 118 % of control | T/C (dose: 125.0 mg/kg/injection, schedule: Q01DX001 (ip), vehicle: saline): 96 % of control | T/C (dose: 125.0 mg/kg/injection, schedule: Q01DX001 (oral), vehicle: saline): 116 % of control | T/C (dose: 125.0 mg/kg/injection, schedule: Q01DX001 (sc), vehicle: saline): 106 % of control | T/C (dose: 125.0 mg/kg/injection, schedule: Q01DX005 (ip), vehicle: saline): 124 % of control | T/C (dose: 125.0 mg/kg/injection, schedule: Q01DX009 (sc), vehicle: saline): 118 % of control | T/C (dose: 125.0 mg/kg/injection, schedule: Q## X003 (ip), vehicle: saline): 108 % of control | T/C (dose: 180.0 mg/kg/injection, schedule: Q01DX Z (ip), vehicle: carboxymethylcellulose (CMC)): 162 % of control | T/C (dose: 200.0 mg/kg/injection, schedule: Q## X008 (ip), vehicle: saline): 109 % of control | T/C (dose: 250.0 mg/kg/injection, schedule: Q01DX001 (ip), vehicle: saline): 107 % of control | T/C (dose: 250.0 mg/kg/injection, schedule: Q01DX001 (oral), vehicle: saline): 110 % of control | T/C (dose: 250.0 mg/kg/injection, schedule: Q01DX001 (sc), vehicle: saline): 109 % of control | T/C (dose: 250.0 mg/kg/injection, schedule: Q01DX009 (sc), vehicle: saline): 123 % of control | T/C (dose: 250.0 mg/kg/injection, schedule: Q## X003 (ip), vehicle: saline): 119 % of control | T/C (dose: 270.0 mg/kg/injection, schedule: Q01DX015 (ip), vehicle: saline): 152 % of control | T/C (dose: 400.0 mg/kg/injection, schedule: Q## X008 (ip), vehicle: saline): 120 % of control | T/C (dose: 500.0 mg/kg/injection, schedule: Q01DX001 (oral), vehicle: saline): 112 % of control | T/C (dose: 800.0 mg/kg/injection, schedule: Q## X024 (ip), vehicle: saline): 122 % of control | T/C (dose: 1000.0 mg/kg/injection, schedule: Q01DX001 (oral), vehicle: saline): 124 % of control

O=NN(CCF)C(=O)NC1CC2CCC1C2 (stereo not drawn)
T/C (dose: 3.12 mg/kg/injection, schedule: Q01DX001 (ip), vehicle: other): 108 % of control | T/C (dose: 5.7 mg/kg/injection, schedule: Q01DX001 (ip), vehicle: other): 104 % of control | T/C (dose: 6.25 mg/kg/injection, schedule: Q01DX001 (ip), vehicle: other): 118 % of control | T/C (dose: 12.5 mg/kg/injection, schedule: Q01DX001 (ip), vehicle: other): 150 % of control | T/C (dose: 23.0 mg/kg/injection, schedule: Q01DX001 (ip), vehicle: other): 180 % of control | T/C (dose: 25.0 mg/kg/injection, schedule: Q01DX001 (ip), vehicle: other): 180 % of control | T/C (dose: 37.0 mg/kg/injection, schedule: Q01DX001 (ip), vehicle: other): 308 % of control | T/C (dose: 37.5 mg/kg/injection, schedule: Q01DX001 (ip), vehicle: other): 361 % of control | T/C (dose: 46.0 mg/kg/injection, schedule: Q01DX001 (ip), vehicle: other): 310 % of control | T/C (dose: 56.0 mg/kg/injection, schedule: Q01DX001 (ip), vehicle: other): 348 % of control

CC(=O)Nc1ccc(NC(=O)C2C3C=CC(C3)C2C(=O)O)cc1 (stereo not drawn)
T/C [1]: 101 % of control | T/C (dose: 100.0 mg/kg/injection, schedule: Q01DX009 (ip), vehicle: saline with Tween-80): 107 % of control | T/C (dose: 200.0 mg/kg/injection, schedule: Q01DX009 (ip), vehicle: saline with Tween-80): 93 % of control

O=P(NN1CCCCC1)(NN1CCCCC1)c1ccccc1
T/C (dose: 100.0 mg/kg/injection, schedule: Q01DX009 (ip), vehicle: carboxymethylcellulose (CMC)): 93 % of control | T/C (dose: 200.0 mg/kg/injection, schedule: Q01DX009 (ip), vehicle: carboxymethylcellulose (CMC)): 93 % of control

O=C(OC1CCC2CC21)c1ccc([N+](=O)[O-])cc1[N+](=O)[O-] (stereo not drawn)
T/C (dose: 100.0 mg/kg/injection, schedule: Q01DX001 (ip), vehicle: Klucel (hydroxypropylcellulose) (HPC)): 98 % of control | T/C (dose: 200.0 mg/kg/injection, schedule: Q01DX001 (ip), vehicle: Klucel (hydroxypropylcellulose) (HPC)): 95 % of control | T/C (dose: 400.0 mg/kg/injection, schedule: Q01DX001 (ip), vehicle: Klucel (hydroxypropylcellulose) (HPC)): 106 % of control

COC1OC(CBr)C(OC(C)=O)C(OC(C)=O)C1OC(C)=O (stereo not drawn)
T/C [2]: 93 % of control | T/C [3]: 98 % of control | T/C [4]: 98 % of control

CCCCCCCCCCc1cc2c([nH]1)C(=O)c1ccccc1C2=O
T/C (dose: 37.5 mg/kg/injection, schedule: Q01DX001 (ip), vehicle: Klucel (hydroxypropylcellulose) (HPC)): 86 % of control | T/C (dose: 75.0 mg/kg/injection, schedule: Q01DX001 (ip), vehicle: Klucel (hydroxypropylcellulose) (HPC)): 89 % of control

CC(=O)Nc1ccc(-n2cnc3c(Cl)ncnc32)cc1C
T/C (dose: 100.0 mg/kg/injection, schedule: Q01DX001 (ip), vehicle: carboxymethylcellulose (CMC)): 87 % of control | T/C (dose: 200.0 mg/kg/injection, schedule: Q01DX001 (ip), vehicle: carboxymethylcellulose (CMC)): 91 % of control | T/C (dose: 400.0 mg/kg/injection, schedule: Q01DX001 (ip), vehicle: carboxymethylcellulose (CMC)): 91 % of control

CSc1ccc(C)cc1C
T/C (dose: 100.0 mg/kg/injection, schedule: Q01DX009 (ip), vehicle: Klucel (hydroxypropylcellulose) (HPC)): 105 % of control | T/C (dose: 200.0 mg/kg/injection, schedule: Q01DX009 (ip), vehicle: Klucel (hydroxypropylcellulose) (HPC)): 103 % of control | T/C (dose: 400.0 mg/kg/injection, schedule: Q01DX009 (ip), vehicle: Klucel (hydroxypropylcellulose) (HPC)): 105 % of control

N=C([Se])c1c(N)ncn1C1OC(CO)C(O)C1O (stereo not drawn)
T/C (dose: 12.5 mg/kg/injection, schedule: Q01DX005 (ip), vehicle: saline): 98 % of control | T/C (dose: 25.0 mg/kg/injection, schedule: Q01DX005 (ip), vehicle: saline): 94 % of control | T/C (dose: 50.0 mg/kg/injection, schedule: Q01DX005 (ip), vehicle: saline): 96 % of control

Cc1c(Cl)cccc1NC(=O)Oc1ccccc1Cc1ccccc1
T/C [1]: 96 % of control and 102 % of control | T/C (dose: 100.0 mg/kg/injection, schedule: Q01DX001 (ip), vehicle: saline with Tween-80): 95 % of control | T/C (dose: 100.0 mg/kg/injection, schedule: Q04DX002 (ip), vehicle: saline with Tween-80): 96 % of control and 110 % of control | T/C [2]: 100 % of control | T/C (dose: 200.0 mg/kg/injection, schedule: Q01DX001 (ip), vehicle: saline with Tween-80): 105 % of control | T/C (dose: 200.0 mg/kg/injection, schedule: Q04DX002 (ip), vehicle: saline with Tween-80): 93 % of control and 92 % of control | T/C [3]: 94 % of control | T/C (dose: 400.0 mg/kg/injection, schedule: Q01DX001 (ip), vehicle: saline with Tween-80): 86 % of control | T/C (dose: 400.0 mg/kg/injection, schedule: Q01DX009 (ip), vehicle: saline with Tween-80): 97 % of control and 89 % of control | T/C (dose: 400.0 mg/kg/injection, schedule: Q04DX002 (ip), vehicle: saline with Tween-80): 89 % of control and 91 % of control | T/C [4]: 86 % of control
